From patent publication US20090170759A1, “NEUROPROTECTIVE PEPTIDES” (priority 2007, published 2009)

Columns and labels:
bclXL = assay: EPO induced gene expression in PC12 cells, quantitative RT-PCR (bclXL); type: cell-based, rat; conditions: PC-12 cells
Protocol: (§1) PC-12 cells (from a rat Pheochromocytoma) were cultured on poly-D-Lysine coated tissue culture plastic in DMEM containing 10% FBS and 5% Horse serum. To induce the neuronal phenotype in PC-12 cells, serum was removed and the cells were treated with NGF (50 ng/ml). Cells were grown for 7 days in the presence of the NGF then used for experiments.
PC-12 cells were cultured as described in Example 1 in a 10 cm poly-D-lysine coated tissue culture dish. Cells were incubated in the presence of 1 U/ml of EPO for 24 hr. Total RNA was then isolated using a Qiagen RNAeasy mini prep kit and used for RT-PCR.
(§2) Real time reverse transcription and PCR were performed in a single reaction using a light cycler and an RNA amplification kit from Roche Molecular Biochemicals. RNA was quantitated and added in equal amounts to reaction mix that includes the dsDNA specific dye SYBR green I. Specific PCR reaction products are quantitated by detecting the amount of fluorescence in the reaction at each PCR cycle. Final analysis was performed using the data analysis software included with the light cycler instrument.

bak = assay: EPO induced gene expression in PC12 cells, quantitative RT-PCR (bak); type: cell-based, rat; conditions: PC-12 cells
Protocol: as §1
PC-12 cells were cultured as described in Example 1 in a 10 cm poly-D-lysine coated tissue culture dish. […] Total RNA was then isolated using a Qiagen RNAeasy mini prep kit and used for RT-PCR.
as §2

[1] = 1 nm EPO for 24 hr (FIG. 3 legend)

## rhEPO: purified, recombinant human EPO (rhEPO), currently formulated and distributed under the trademarks of EPREX, ERYPO, or PROCRIT
bclXL; [1]
  increase in the expression of the anti-apoptotic gene bclXL: 6 fold
bclXL; EPO 1 U/ml for 24 hr
  increase in the expression of the anti-apoptotic gene bclXL: 6 fold
bak; [1]
  decrease in the expression of the pro-apoptotic Bak: greater than 5 fold
bak; EPO 1 U/ml for 24 hr
  decrease in the expression of the pro-apoptotic gene bak: 5 fold
